Results: US20240191303A1, “METHODS FOR OPTIMIZING THE TREATMENT OF COLORECTAL CANCER” (Brown University, priority 2021, published 2024)
Entries after “also recorded” stand apart in the source; their conditions may differ. Read-outs that look alike come from different tables or passages of the source.

Assays:
[1] = tested on: HCT116 and HCT116 p53−/− cells; test: Clariom D microarrays, RNA expression relative to untreated cells; format: cell-based, human; conditions: IC50 dose, 8 h; for BTG2 induction, rank in p53-dependent gene signature: fold change>2
Method: Microarrays. Total cellular RNA was isolated, and Clariom™ D microarrays were used to measure changes in RNA expression relative to untreated cells. A total of 7×10^5 HCT116 and HCT116 p53^−/− cells were plated in a 6-well plate and incubated for twelve-sixteen hours before being treated with 5-fluorouracil, CPT-11, oxaliplatin, or cisplatin at their respective IC50 doses for eight hours. Cell pellets were collected and split into two tubes, one for western blot analysis and one for RNA extraction. Samples were randomized, and RNA was isolated (Qiagen 74134) in five batches to ensure a high-quality RNA product. Acceptable RNA concentration and quality were verified with Nanodrop and Bioanalyzer measurements. Clariom D Microarrays (ThermoFisher 902923) were conducted according to the manufacturer's protocol in two batches on randomized samples to limit batch effects.
Statistical analysis. TAC software was used to calculate fold changes and statistical significance. Microarrays Applied Biosystems Transcriptomic Analysis Console (TAC) software was used to calculate fold-changes in gene expression relative to the untreated control cells. p-values<0.05 were considered significant.
To define a pan-drug signature and to evaluate heterogeneity in the p53 response on a whole-transcriptome scale, the inventors treated HCT116 and HCT116 p53^−/− cells with each of the four drugs at their IC50 for eight hours. The RNA expression relative to an untreated control was measured using microarray analysis. Upregulation of p53 in these samples and equal induction of cell death at this dose and time point was validated by Western blot and CellTiterGlo, respectively, before microarray analysis. […] Each internal control had tightly clustered triplicates. Quality control measurements were also determined to be satisfactory for further analysis.

[2] = oxaliplatin-treated mice; cited from earlier work
HCT116 cells (wild-type) = test: Cytokine profiling of cell supernatants (Luminex 200), wild-type cells; format: cell-based, human; conditions: IC50, 48 h
Method: (§1) Cytokine profiling. A total of 4×10^4 HCT116 or HCT116 p53^−/− cells were plated per well of a 24-well plate and incubated twelve-sixteen hours before treatment with […], CPT-11, oxaliplatin, cisplatin, or various combination treatments at the appropriate IC50 (combination treatments received each drug at their IC50). Cell supernatants were collected at forty-eight hours after treatment and stored at −20° C. Samples were prepared and run in triplicate on a Luminex 200 Instrument (R&D LX200-XPON-RUO). Sample preparation was conducted, and instrument settings were selected based on the Human Magnetix Luminex Assay (R&D LXSAHM) protocol.
(§2) Cytokine profiling. Results were analyzed in GraphPad prism, and statistical significance across drugs was determined separately for wild-type and ^−/− cells with a one-way ANOVA. p-values<0.05 were considered significant.
(§3) HCT116 and HCT116 p53^−/− cells were treated with the four drugs (5-FU, CPT-11, oxaliplatin, and cisplatin) at their IC50s and combination treatment groups received two-three drugs, each at their individual IC50 concentration.

[3] = tested on: HCT116 and HCT116 p53−/− cells; test: Cytokine profiling of cell supernatants (Luminex 200), p53 status not separated; format: cell-based, human; conditions: for VEGF production/release: both HCT116 and HCT116 p53−/−
Method: A total of 4×10^4 HCT116 or HCT116 p53^−/− cells were plated per well of a 24-well plate and incubated twelve-sixteen hours before treatment with 55-fluorouracil, CPT-11, oxaliplatin, cisplatin, or various combination treatments at the appropriate IC50 (combination treatments received each drug at their IC50). Cell supernatants were collected at forty-eight hours after treatment and stored at −20° C. Samples were prepared and run in triplicate on a Luminex 200 Instrument (R&D LX200-XPON-RUO). Sample preparation was conducted, and instrument settings were selected based on the Human Magnetix Luminex Assay (R&D LXSAHM) protocol.

[4] = cited from earlier work
HCT116 p53−/− cells = test: Cytokine profiling of cell supernatants (Luminex 200), p53−/− cells; format: cell-based, human; conditions: IC50, 48 h
Method: as §1, §2, §3

[5] = drug at IC50, 48 h, HCT116 vs HCT116 p53−/−
[6] = drug(s) each at IC50, 48 h, vs control

SMILES: O=C1[O][Pt]2([NH][C@@H]3CCCC[C@H]3[NH]2)[O]C1=O [oxaliplatin, Oxaliplatin]
- ATF3 transcript regulation [1]: Upregulation
- FOS transcript regulation [1]: uniquely upregulated
- SAT1 transcript regulation [1]: uniquely upregulated
- SUSD2 transcript regulation [1]: uniquely upregulated
- transcripts of the 5-fluorouracil/CPT-11/oxaliplatin-specific signature (e.g., SERPINE1, CEACAM1, C1orf116) [1]: upregulated
- BTG2 induction, rank in p53-dependent gene signature [1]: top upregulated gene; also recorded: most highly induced gene
- neuronal damage (upregulation of FOS and ATF3) [2]: neuronal damage
- IL-8 level in cell supernatant (HCT116 cells (wild-type)): did not affect
- IL-8 level in cell supernatant [3]: increase
- TRAILR2 level in cell supernatant [3]: down-regulated
- p53 dependence of TRAILR2 regulation [3]: dependent on p53
- VEGF production/release ([3]; drug at IC50, 48 h): downregulated
- peripheral neuropathy, share of patients [4]: 30-50%
- IL-8 level in cell supernatant (HCT116 p53−/− cells): induced

SMILES: O=c1[nH]cc(F)c(=O)[nH]1 [5-fluorouracil, 5-Fluorouracil]
- BAX transcript regulation [1]: slight preferential upregulation; also recorded: preferentially upregulated
- histone gene regulation [1]: strikingly unique down-regulation; also recorded: uniquely down-regulated
- transcripts of the 5-fluorouracil/CPT-11/oxaliplatin-specific signature (e.g., SERPINE1, CEACAM1, C1orf116) [1]: upregulated
- BTG2 induction, rank in p53-dependent gene signature [1]: top upregulated gene; also recorded: most highly induced gene
- p53 dependence of TRAILR2 regulation [3, 5]: p53-independent
- VEGF production/release ([3]; drug at IC50, 48 h): downregulated
- TRAILR2 level in cell supernatant ([3]; drug at IC50, 48 h, vs control): down-regulated

SMILES: N.N.[Cl][Pt][Cl] [cisplatin]
- PITPNC1 transcript regulation [1]: downregulation
- PRPF39 transcript regulation [1]: upregulation
- ROR1 transcript regulation [1]: downregulation
- transcripts of the 5-fluorouracil/CPT-11/oxaliplatin-specific signature (e.g., SERPINE1, CEACAM1, C1orf116) [1]: unaffected
- BTG2 induction, rank in p53-dependent gene signature [1]: top upregulated gene; also recorded: most highly induced gene
- p53 dependence of TRAILR2 regulation [3, 5]: despite p53 status
- VEGF production/release ([3]; drug at IC50, 48 h): downregulated
- TRAILR2 level in cell supernatant ([3]; drug at IC50, 48 h, vs control): increased
- ferritin level in cell supernatant [3, 6]: increase
- ferritin level in cell supernatant (HCT116 p53−/− cells): large increase

SMILES: CN(C)C(=N)N=C(N)N [metformin]
- reversal of oxaliplatin-induced neuronal damage [2]: reversible

SMILES: CCc1c2c(nc3ccc(OC(=O)N4CCC(N5CCCCC5)CC4)cc13)-c1cc3c(c(=O)n1C2)COC(=O)[C@]3(O)CC [CPT-11, Irinotecan]
- DRAM1 transcript regulation [1]: p53-dependent, CPT-11-specific regulation
- FDXR transcript regulation [1]: p53-dependent, CPT-11-specific regulation
- TLR3 transcript regulation [1]: p53-dependent, CPT-11-specific regulation
- transcripts of the 5-fluorouracil/CPT-11/oxaliplatin-specific signature (e.g., SERPINE1, CEACAM1, C1orf116) [1]: upregulated
- BTG2 induction, rank in p53-dependent gene signature [1]: second most highly induced gene
- VEGF production/release ([3]; drug at IC50, 48 h): downregulated
- TRAILR2 level in cell supernatant ([3]; drug at IC50, 48 h, vs control): not affected
- IL-8 level in cell supernatant [3, 6]: moderate increase
